The values that follow are results of earlier work, collected in publication PMC12216204 (Scientific Reports, 2025).

The test system of data set [1] is non-cancerous cells.
The subject of data set [2] is orthotopic MDA-MB-231 (TNBC) tumors.

WXEAAYQRFL [compound 18]: the proteolytic stability result is given as “not proteolytically stable”.
Regarding WXEAAYQkFL (head to tail) [cy18-4], the proteolytic stability entry was “proteolytically stable”. In data set [1], the “uptake by the non-cancerous cells” value is on record as “minimal uptake”. Besides, the “accumulation in mice bearing orthotopic MDA-MB-231 (TNBC) tumors” value in data set [2] is on record as “accumulated primarily at the tumor site”.
